Data from US20190307729A1, “ANTIMICROBIAL COMPOUNDS AND METHODS FOR USE THEREOF” (VERSITECH LIMITED, priority 2016, published 2019).
“Also recorded” adds a separate entry of the source. Like-named read-outs stand apart in the source and are kept apart here.

What was measured:
[1] = system: hla promoter; test: Paper disc diffusion and lux assay (hla promoter lux reporter); type: cell-based, S. aureus
Description: A single colony of bioluminescent S. aureus carrying the hla-promoter lux reporting system was resuspended in 200 μl of sterile water, diluted 1000-fold into 0.7% (w/v) BHI agar and overlaid onto BHI agar plates. 10 μl of the 50 mM analogues compounds dissolved in DMSO were impregnated to paper disc and placed on the lawn of bacteria. The plates were incubated overnight at 37° C. The luminescence was detected with Xenogen IVIS 100 in vivo imaging system (Xenogen, Alameda, Calif.).

[2] = system: S. aureus USA300; test: BALB/c mice infection model, organ bacterial load; conditions: 3 days after infection
Description: (§1) 6-8 weeks old female BALB/c mice were infected with 4×10^8 CFU of S. aureus. […] 3 days after infection, the animals were euthanized; kidneys, livers and spleens were homogenized in PBS, and plated on BHI agar for quantitative bacterial culture.

[3] = system: Vero cells; test: Cytotoxicity assay (MTT); type: cell-based; conditions: for Cytotoxicity: MTT assays in Vero cells
Description: MTT assays are performed for selected compounds on Vero cells according to product instructions.

[4] = system: S. aureus Mu3; test: BALB/c mice infection model, organ bacterial load; conditions: 3 days after infection
Description: as §1

[5] = system: hla promoter; test: Paper disc diffusion and lux assay (hla promoter lux reporter); type: cell-based, S. aureus; conditions: each compound used at 25 μM
[6] = system: S. aureus; test: MIC of compound 3 and analogues (Table 7, strain not given)
[7] = system: S. aureus Mu3; test: Secondary screening of compound 13 analogues in combination with gentamicin (growth by OD 595 nm); conditions: for activity at 5 µM / activity at 20 µM / activity at 50 µM / inhibition at 20 µM / inhibition at 50 µM: Staphylococcus aureus; for activity at 5 µM / activity at 20 µM / activity at 50 µM: MU3, 16 h, read-out: relative growth; for inhibition at 20 µM: MU3, read-out: 20 μM + 200 μg/ml Gentamicin Growth inhibition Percentage; for inhibition at 50 µM: MU3, read-out: 50 μM + 200 μg/ml Gentamicin Growth inhibition Percentage; for relative growth: relative to DMSO = 1
Description: All screening is done in 384-well polystyrene microtiter plates (Greiner Bio-One). Overnight culture of Mu3 is washed with BHI medium 3 times, diluted and plated to give 5×10^5 CFU/mL per well. The plates are incubated at 37° C. for 16 hours and growth is monitored by optical density reading at 595 nm using an automated DTX 880 multimode detector. Screening using BHI medium is designated as the background screen. […] Sub MIC concentration of antibiotics is selected for screening. BHI containing a final concentration for gentamicin 156.25 μg/mL is used correspondingly for individual experiments. […] Screening results with various antibiotics is normalized with the background screening to calculate the percentage of growth inhibition.
Identical experimental procedures are performed as primary screening procedures, except different concentrations of selected compound are tested.
Secondary like screening was performed with different concentrations of each analogue compounds were tested with different gentamicin concentration, 50 μM, 20 μM and 5 μM compound concentration were used against, BHI containing, 0 μg/ml, 100 μg/ml and 200 μg/ml gentamicin.

[8] = system: S. aureus Mu3 strain; test: Microdilution checkerboard assay of compound with aminoglycosides; conditions: for Combinatory effect with gentamicin: checkerboard
Description: (§2) The Checkerboard assay is performed in 96-well microtitre plates. […] The antibiotics are 2 fold serially diluted along the ordinate, the compounds are added along the abscissa to generate the checkerboard concentration gradients between the compounds and the antibiotics. Bacterial culture are topped and incubated overnight. Bacterial growth is monitored by the OD absorbance at 595 nm.
(§3) The concentration tested range was from 500M to 0.98 μM. MICs higher than 500M were not determined.

[9] = system: L. monocytogenes; test: Checkerboard assay with gentamicin
Description: as §2, §3

[10] = system: E. coli; test: Checkerboard assay with gentamicin; type: cell-based, Escherichia coli
Description: Bacterial culture are topped and incubated overnight.

[11] = system: S. pneumoniae; test: Checkerboard assay with gentamicin
Description: as §2, §3

[12] = system: E. faecalis; test: Checkerboard assay with gentamicin
Description: as §2, §3

[13] = system: P. aeruginosa; test: Pigment formation (virulence suppression); type: cell-based, Pseudomonas aeruginosa
[14] = system: MRSA Mu3; test: Minimal inhibitory concentration (MIC) test, broth micro-dilution; type: cell-based, Staphylococcus aureus; conditions: microbroth dilution
Description: Preliminary testing of the MIC value of three antibiotics (Gentamicin, Ceftriaxone, and Levofloxacin) against MRSA Mu3 was performed according to microbroth dilution methods. This was to establish the reference for the appropriate amount of antibiotics to be used for HTS for hit identification of compounds that could have synergistic activities or potentiate the antibiotic's antimicrobial effect. The MIC value of Gentamicin against MRSA Mu3 was determined to be 1000 μg/mL.

Molecule	repression in hla promoter lux reporter assay [1]	Cytotoxicity [3]	activity at 5 µM [7] [%]	activity at 20 µM [7] [%]	activity at 50 µM [7] [%]	inhibition at 20 µM [7] [%]	inhibition at 50 µM [7] [%]	relative growth ([7]; [Cpd] 5 μM, [Genta] 100 ug/ml)	relative growth ([7]; [Cpd] 5 μM, [Genta] 200 ug/ml)	relative growth ([7]; [Cpd] 20 μM, [Genta] 100 ug/ml)	relative growth ([7]; [Cpd] 20 μM, [Genta] 200 ug/ml)	relative growth ([7]; [Cpd] 50 μM, [Genta] 100 ug/ml)	relative growth ([7]; [Cpd] 50 μM, [Genta] 200 ug/ml)	cytotoxicity from Vero cell MTT assays [3]	Combinatory effect with gentamicin [8]	combined effect with gentamicin in inhibiting growth [8]	also measured
O=C(O)CN1C(=O)/C(=C/c2ccc(OCc3ccccc3)cc2)SC1=S [Compound 3]	significant repression	Low	118	109	88	60	92	1.12	1.18	0.94	0.4	*0.09	*0.08	–	–	–	liver bacterial load [2]: reduction; also recorded: reduce liver bacterial load; spleen bacterial load [2]: reduction; also recorded: reduce spleen bacterial load; kidney bacterial load [4]: reduction; also recorded: reduce kidney bacterial load; liver bacterial load [4]: reduction; also recorded: reduce liver bacterial load; spleen bacterial load [4]: reduction; also recorded: reduce spleen bacterial load; Relative lux signal [5]: 0.00439; MIC ([6]; Staphylococcus aureus): 500 µM
O=C(O)CN1C(=O)/C(=C/c2cccc(OCc3ccc(Cl)cc3Cl)c2)SC1=S [Compound 17]	–	High	99	74	43	91	87	*0.35	*0.1	*0.09	*0.09	*0.14	*0.13	high cytotoxicity	Potentiating	potentiating activities	combined effect with gentamicin in inhibiting growth ([8]; listed as compound 17): potentiating effect
O=C(O)CN1C(=O)/C(=C/c2cccc(OCc3ccccc3Cl)c2)SC1=S [Compound 19]	–	Medium	99	91	76	91	92	0.96	0.83	*0.1	*0.09	*0.09	*0.08	less cytotoxicity	Potentiating	promising potentiating effect	combined effect with gentamicin in inhibiting growth ([8]; listed as compound 19): potentiating effect
CCOc1cc(/C=C2\SC(=S)N(CC(=O)O)C2=O)ccc1OCc1ccc(Cl)cc1 [Compound 20]	–	Medium/Low	101	78	91	91	86	0.96	0.88	*0.14	*0.09	*0.17	*0.14	less cytotoxicity	Potentiating	promising potentiating effect	combined effect with gentamicin in inhibiting growth ([8]; listed as compound 20): potentiating effect
CCCOc1ccc(/C=C2\SC(=S)N(CC(=O)O)C2=O)cc1 [Compound 48]	significant repression	–	98	95	87	36	69	0.97	0.96	0.97	0.64	0.8	*0.31	–	–	–	–
O=C(O)CN1C(=O)C(=Cc2ccc(OCc3ccc(Cl)cc3)cc2)SC1=S [Compound 82]	–	Low	–	–	–	–	–	0.98	0.61	*0.09	*0.09	*0.13	*0.11	low cytotoxicity	Potentiating	good level of potentiating effect	combined effect with gentamicin in inhibiting growth [9]: potentiating effect; combined effect with gentamicin in inhibiting growth [10]: synergistic effect; combined effect with gentamicin in inhibiting growth ([10]; listed as compound 82): potentiating effect; combined effect with gentamicin in inhibiting growth [11]: potentiating effect; combined effect with gentamicin in inhibiting growth [12]: potentiating effect; combined effect with neamine in inhibiting growth [8]: retained its potentiating effect; combined effect with neamine in inhibiting growth ([8]; listed as compound 82): potentiating effect; 20 μM + 200 μg/ml Gentamicin Growth inhibition Percentage ([7]; 20 μM compound + 200 μg/ml gentamicin, S. aureus Mu3): 91%; 50 μM + 200 μg/ml Gentamicin Growth inhibition Percentage ([7]; 50 μM compound + 200 μg/ml gentamicin, S. aureus Mu3): 89%; relative growth ([7]; [Cpd] 5 μM, BHI only (no gentamicin)): 1.03; relative growth ([7]; [Cpd] 20 μM, BHI only (no gentamicin)): 0.78; relative growth ([7]; [Cpd] 50 μM, BHI only (no gentamicin)): 0.99; pigment formation [13]: repressing the pigment formation
COc1ccc(/C=C2/SC(=S)N(CCC(N)=O)C2=O)cc1 [Compound 87]	hla promoter lux repression	–	–	–	–	–	–	–	–	–	–	–	–	–	–	–	Relative lux signal [5]: 0.2657; MIC [6]: 500 µM
Gentamicin	–	–	–	–	–	–	–	–	–	–	–	–	–	–	–	–	MIC value against MRSA Mu3 [14]: 1000 µg/mL
